Measured values from patent US20260364184A1, “COMPOUND BASED ON OXOISOINDOLINYL-SUBSTITUTED TETRAHYDROPYRIMIDINE-DIONE AND USE THEREOF” (GLUETACS THERAPEUTICS (SHANGHAI) CO., LTD., priority 2023, published 2026).

biological target: T1, IRAK4 (Homo sapiens, UniProt Q9NWZ3); assay: Western blot degradation of IRAK4; type: cell-based; details: hPBMC Cell; 24 hours
T1 construct: expression of target proteins in cells; endogenous in cells
T1 sequence (Q9NWZ3 1-460): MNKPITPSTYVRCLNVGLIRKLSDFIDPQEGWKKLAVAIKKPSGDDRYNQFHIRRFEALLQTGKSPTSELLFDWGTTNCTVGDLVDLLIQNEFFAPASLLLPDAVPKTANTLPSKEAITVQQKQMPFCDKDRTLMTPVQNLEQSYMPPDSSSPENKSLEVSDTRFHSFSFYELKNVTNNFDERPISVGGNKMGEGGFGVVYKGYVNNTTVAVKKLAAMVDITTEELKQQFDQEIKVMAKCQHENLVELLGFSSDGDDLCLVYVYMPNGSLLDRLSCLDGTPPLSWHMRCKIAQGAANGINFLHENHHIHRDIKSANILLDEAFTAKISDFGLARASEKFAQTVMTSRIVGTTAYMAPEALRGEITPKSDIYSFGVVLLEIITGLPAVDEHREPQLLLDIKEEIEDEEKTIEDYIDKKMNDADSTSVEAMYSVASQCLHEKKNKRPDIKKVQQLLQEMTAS
Procedure: Conventional Western blot assay was performed to evaluate the effects of the compounds of the present disclosure on the expression of target proteins in cells.
(1) Cell Seeding and Protein Harvesting: The selected cells were processed according to the cell seeding procedure and protein harvesting procedure in Table II-2.
(2) To the collected supernatant, 5×SDS sample loading buffer was added, followed by denaturation at 95 °C for 5 minutes. The denatured samples were then separated by SDS-PAGE electrophoresis on a polyacrylamide gel. Proteins were transferred to a nitrocellulose membrane (0.45 μm NC membrane), blocked with blocking buffer at room temperature for 1 hour, and subjected to antibody incubation and development procedures according to the antibody manufacturer's instructions (Cell Signaling Technology).
Half-Maximal Degradation Concentration value (the drug concentration required for degrading proteins by 50%, abbreviated as DC50) reads method: comparing the grayscale values of Western blot bands from drug-treated samples with those from blank DMSO-treated controls, and identifying the drug concentration range at which the grayscale value is half that of the DMSO-treated control bands.
DC50 values can be calculated using ImageJ software to measure grayscale values of Western blot bands from drug-treated samples. The concentration-response curve is fitted to estimate the drug concentration corresponding to half the grayscale value.
Target protein remaining (%) refers to the percentage of target protein remaining in cells after treatment with protein degrader compounds.
Calculation method for target protein remaining (%): Use ImageJ software to measure grayscale values of Western blot bands from drug (protein degrader)-treated samples. The grayscale value of drug-treated bands is divided by that of internal control protein bands, and the resulting quotient is normalized to obtain the relative percentage of remaining target protein after protein degrader treatment.
Target protein degradation rate (%)=1−target protein remaining (%).

Compound | Degradation of substrate protein IRAK4 (substrate protein remaining %)
O=C1CCN(N2C(=O)c3ccc(N4CCC(N5CCN(C[C@H]6CC[C@H](n7cc(NC(=O)c8cnn9ccc(N%10C[C@H]%11C[C@@H]%10CO%11)nc89)c(C(F)F)n7)CC6)CC5)CC4)cc3C2=O)C(=O)N1 [GT-05122, 5-((1R,4R)-2-oxa-5-azabicyclo[2.2.1]heptan-5-yl)-N-(3-(difluoromethyl)-1-((1r,4R)-4-((4-(1-(2-(2,4-dioxotetrahydropyrimidin-1(2H)-yl)-1,3-dioxoisoindolin-5-yl)piperidin-4-yl)piperazin-1-yl)methyl)cyclohexyl)-1H-pyrazol-4-yl)pyrazolo[1,5-a]pyrimidine-3-carboxamide] | A (0%≤substrate protein remaining %≤80%)
O=C1CCN(N2C(=O)c3ccc(N4CCC(N5CCN(C[C@H]6CC[C@H](n7cc(NC(=O)c8cnn9ccc(N%10C[C@H]%11C[C@@H]%10CO%11)nc89)c(C(F)F)n7)CC6)CC5)C(F)(F)C4)cc3C2=O)C(=O)N1 (stereo partly shown) [GT-05123] | A (0%≤substrate protein remaining %≤80%)
O=C1CCN(N2C(=O)c3ccc(N4CCC(N5CCC(CN6CCC(n7cc(NC(=O)c8coc(-c9ccnc(NCC%10CC%10)c9)n8)c(C(F)F)n7)CC6)CC5)CC4)cc3C2=O)C(=O)N1 [GT-05133, 2-(2-((cyclopropylmethyl)amino)pyridin-4-yl)-N-(3-(difluoromethyl)-1-(1-((1′-(2-(2,4-dioxotetrahydropyrimidin-1(2H)-yl)-1,3-dioxoisoindolin-5-yl)-[1,4′-bipiperidin]-4-yl)methyl)piperidin-4-yl)-1H-pyrazol-4-yl) oxazole-4-carboxamide] | A (0%≤substrate protein remaining %≤80%)
O=C1CCN(N2C(=O)c3ccc(N4CCC(N5CCC(CN6CCC(n7cc(NC(=O)c8coc(-c9ccnc(NCC(F)(F)F)c9)n8)c(C(F)F)n7)CC6)CC5)CC4)cc3C2=O)C(=O)N1 [GT-05144, N-(3-(difluoromethyl)-1-(1-((1′-(2-(2,4-dioxotetrahydropyrimidin-1(2H)-yl)-1,3-dioxoisoindolin-5-yl)-[1,4′-bipiperidin]-4-yl)methyl)piperidin-4-yl)-1H-pyrazol-4-yl)-2-(2-((2,2,2-trifluoroethyl)amino)pyridin-4-yl) oxazole-4-carboxamide] | A (0%≤substrate protein remaining %≤80%)
CC(C)(O)c1cc2nn(C3CCN(CC4CCN(c5ccc6c(c5)C(=O)N(N5CCC(=O)NC5=O)C6=O)CC4)CC3)cc2cc1NC(=O)c1cccc(C(F)(F)F)n1 [GT-05220, N-(2-(1-((1-(2-(2,4-dioxotetrahydropyrimidin-1(2H)-yl)-1,3-dioxoisoindolin-5-yl)piperidin-4-yl)methyl)piperidin-4-yl)-6-(2-hydroxypropan-2-yl)-2H-indazol-5-yl)-6-(trifluoromethyl) picolinamide] | A (0%≤substrate protein remaining %≤80%)
CC(C)(O)c1cc2nn(C3CCN(CC4CCN(c5cccc6c5C(=O)N(N5CCC(=O)NC5=O)C6=O)CC4)CC3)cc2cc1NC(=O)c1cccc(C(F)(F)F)n1 [GT-05221, N-(2-(1-((1-(2-(2,4-dioxotetrahydropyrimidin-1(2H)-yl)-1,3-dioxoisoindolin-4-yl)piperidin-4-yl)methyl)piperidin-4-yl)-6-(2-hydroxypropan-2-yl)-2H-indazol-5-yl)-6-(trifluoromethyl) picolinamide] | A (0%≤substrate protein remaining %≤80%)
O=C1CCN(N2C(=O)c3ccc(N4C5CCC4CN(C[C@H]4CC[C@H](n6cc(NC(=O)c7cnn8ccc(N9C[C@H]%10C[C@@H]9CO%10)nc78)c(C(F)F)n6)CC4)C5)cc3C2=O)C(=O)N1 [GT-05240, 5-((1R,4R)-2-oxa-5-azabicyclo[2.2.1]heptan-5-yl)-N-(3-(difluoromethyl)-1-((1r,4R)-4-((8-(2-(2,4-dioxotetrahydropyrimidin-1(2H)-yl)-1,3-dioxoisoindolin-5-yl)-3,8-diazabicyclo[3.2.1]octan-3-yl)methyl)cyclohexyl)-1H-pyrazol-4-yl)pyrazolo[1,5-a]pyrimidine-3-carboxamide] | A (0%≤substrate protein remaining %≤80%)
O=C1CCN(N2C(=O)c3cccc(N4CCN(C[C@H]5CC[C@H](n6cc(NC(=O)c7cnn8ccc(N9C[C@H]%10C[C@@H]9CO%10)nc78)c(C(F)F)n6)CC5)CC4)c3C2=O)C(=O)N1 [GT-05241, 5-((1R,4R)-2-oxa-5-azabicyclo[2.2.1]heptan-5-yl)-N-(3-(difluoromethyl)-1-((1r,4R)-4-((4-(2-(2,4-dioxotetrahydropyrimidin-1(2H)-yl)-1,3-dioxoisoindolin-4-yl)piperazin-1-yl)methyl)cyclohexyl)-1H-pyrazol-4-yl)pyrazolo[1,5-a]pyrimidine-3-carboxamide] | A (0%≤substrate protein remaining %≤80%)
CC(C)(O)c1cc2nn(C3CCN(CC4CCN(C5CCN(c6ccc7c(c6)C(=O)N(N6CCC(=O)NC6=O)C7=O)CC5)CC4)CC3)cc2cc1NC(=O)c1cccc(C(F)(F)F)n1 [GT-05290, N-(2-(1-((1′-(2-(2,4-dioxotetrahydropyrimidin-1(2H)-yl)-1,3-dioxoisoindolin-5-yl)-[1,4′-bipiperidin]-4-yl)methyl)piperidin-4-yl)-6-(2-hydroxypropan-2-yl)-2H-indazol-5-yl)-6-(trifluoromethyl) picolinamide] | A (0%≤substrate protein remaining %≤80%)
CC(C)Nc1cc(-n2ccc3cc(C#N)cnc32)ncc1C(=O)NC1CCN(Cc2ccc3c(c2)C(=O)N(N2CCC(=O)NC2=O)C3=O)CC1 [GT-05326, 6-(5-cyano-1H-pyrrolo[2,3-b]pyridin-1-yl)-N-(1-((2-(2,4-dioxotetrahydropyrimidin-1(2H)-yl)-1,3-dioxoisoindolin-5-yl)methyl)piperidin-4-yl)-4-((isopropyl)amino) nicotinamide] | A (0%≤substrate protein remaining %≤80%)
CC(C)Nc1cc(-n2ccc3cc(C#N)cnc32)ncc1C(=O)NC1CCN(CC2CCN(c3ccc4c(c3)C(=O)N(N3CCC(=O)NC3=O)C4=O)CC2)CC1 [GT-05813, 6-(5-cyano-1H-pyrrolo[2,3-b]pyridin-1-yl)-N-(1-((1-(2-(2,4-dioxotetrahydropyrimidin-1(2H)-yl)-1,3-dioxoisoindolin-5-yl)piperidin-4-yl)methyl)piperidin-4-yl)-4-(isopropylamino) nicotinamide] | A (0%≤substrate protein remaining %≤80%)
CC(C)Nc1cc(-n2ccc3cc(C#N)cnc32)ncc1C(=O)NC1CCN(CC2CCN(c3cccc4c3C(=O)N(N3CCC(=O)NC3=O)C4=O)CC2)CC1 [GT-05814, 6-(5-cyano-1H-pyrrolo[2,3-b]pyridin-1-yl)-N-(1-((1-(2-(2,4-dioxotetrahydropyrimidin-1(2H)-yl)-1,3-dioxoisoindolin-4-yl)piperidin-4-yl)methyl)piperidin-4-yl)-4-(isopropylamino) nicotinamide] | A (0%≤substrate protein remaining %≤80%)
COc1cc2nn(C3CCN(CC4CCN(c5cccc6c5C(=O)N(N5CCC(=O)NC5=O)C6=O)CC4)CC3)cc2cc1NC(=O)c1cccc(C(F)(F)F)c1 [GT-05815, N-(2-(1-((1-(2-(2,4-dioxotetrahydropyrimidin-1(2H)-yl)-1,3-dioxoisoindolin-4-yl)piperidin-4-yl)methyl)piperidin-4-yl)-6-methoxy-2H-indazol-5-yl)-3-(trifluoromethyl)benzamide] | A (0%≤substrate protein remaining %≤80%)
